In US12550899B2, “Topramezone derivative and use thereof” (priority 2023, dated 2026):

Assays:
Test in all cases: Corn safety laboratory test
Assay type in all cases: in vivo
Conditions in all cases: for Fresh Weight / Fresh Weight Control Efficacy: 15 days after application
Corn (Sweet Corn) = tested on: Corn (Sweet Corn)
Description: (§1) Three corn varieties: Zhengdan 958, white waxy corn, and sweet corn (Runhua sweet corn).
(§2) The soil used for the test was a mixture of surface 20 cm loam and vermiculite, mixed in a volume ratio of 3:1 to form a culture soil. The test corn was cultured in a glass greenhouse with a temperature ranging from 25° C. to 35° C. and under natural light.
(§3) A measured quantity of corn seeds were sown in plastic pots with a diameter of 15 cm, and covered with 2-3 cm of soil. The ports were then placed in enamel trays filled with water, and watered by bottom irrigation. After sowing, the pots were transferred to the glass greenhouse for cultivation and growth.
(§4) In the corn safety test, dosages were set for the two Compounds (Compound I of the present invention and Compound II of the present invention) and the control herbicide Topramezone, which were 15, 30, 60, and 120 grams of active ingredient per hectare respectively. In addition, a blank control was also prepared.
(§5) The required amount of the herbicide was accurately measured out, an appropriate amount of emulsifier and organic solvent were added to dissolve the herbicide, and then a certain amount of water was added therein until the herbicide was diluted to the required dosage by using the serial dilution method for standby.
(§6) Corn stems and leaves were uniformly sprayed at the 3-4-leaf stage.
(§7) The ASS-3 automatic control spraying system with a fan-shaped nozzle was used indoors for herbicide application. Depending on the nozzle pressure and flow rate, 50 mL of herbicide solution was applied to a spraying area of 1.1 m^2 (which was equivalent to the water consumption of 30 L per mu). The system's operating speed was calibrated. The plastic pots to be treated were arranged evenly on the spraying platform to ensure uniform treatment. The spray pressure was set to 0.35 MPa, and the flow rate of the fan-shaped nozzle was set to 800 mL/min. The spraying was carried out in sequence from the low dosage to the high dosage. Each treatment was repeated three times.
(§8) The herbicide was applied once. After spraying, the pots were air-dried for one day and then placed in the glass greenhouse. Regular watering was conducted to maintain moisture.
(§9) After application of the herbicide, whether there were any phytotoxic symptoms in the corn for each treatment was recorded. If yes, the phytotoxicity symptoms and grade were recorded in detail. 15 days after application, the fresh weight of the corn in each treatment was measured and the fresh weight control efficacy was calculated to assess the safety of the herbicide on the corn.
(§10) The treatment results were calculated according to the following formula: fresh weight control efficacy (%)=(control fresh weight−treatment fresh weight)/control fresh weight×100.

Corn (White Waxy Corn) = tested on: Corn (White Waxy Corn)
Description: as §1, §2, §3, §4, §5, §6, §7, §8, §9, §10

Corn (Zhengdan 958) = tested on: Corn (Zhengdan 958)
Description: as §1, §2, §3, §4, §5, §6, §7, §8, §9, §10

[1] = Sweet Corn, dosage 15 g a.i./ha
[2] = Sweet Corn, dosage 30 g a.i./ha
[3] = Sweet Corn, dosage 60 g a.i./ha
[4] = Sweet Corn, dosage 120 g a.i./ha
[5] = White Waxy Corn, dosage 15 g a.i./ha
[6] = White Waxy Corn, dosage 30 g a.i./ha
[7] = White Waxy Corn, dosage 60 g a.i./ha
[8] = White Waxy Corn, dosage 120 g a.i./ha
[9] = Zhengdan 958, dosage 15 g a.i./ha
[10] = Zhengdan 958, dosage 30 g a.i./ha
[11] = Zhengdan 958, dosage 60 g a.i./ha
[12] = Zhengdan 958, dosage 120 g a.i./ha

Question: For `Cc1c(C(=O)c2cnn(C)c2O)ccc(S(C)(=O)=O)c1C1=NOCC1` [Topramezone], which “Corn Growth Status” value (Corn (Sweet Corn); [1]) is on record?
Answer: The value was “Good, Normal Growth”.

Question: And the “Fresh Weight” value (Corn (Sweet Corn); [1])?
Answer: The value was 7.6 g.

Question: What about the “Fresh Weight Control Efficacy” value (Corn (Sweet Corn); [1]) of the same molecule?
Answer: The value was −2.0%.

Question: And the “Corn Growth Status” value (Corn (Sweet Corn); [2])?
Answer: The value was “Good, Normal Growth”.

Question: And the “Fresh Weight” value (Corn (Sweet Corn); [2])?
Answer: Its value is 7.4 g.

Question: And the “Fresh Weight Control Efficacy” value (Corn (Sweet Corn); [2])?
Answer: The value was −0.3%.

Question: What about the “Corn Growth Status” value (Corn (Sweet Corn); [3]) of the same molecule?
Answer: The value was “Good, Normal Growth”.

Question: What about the “Fresh Weight” value (Corn (Sweet Corn); [3]) of the same molecule?
Answer: Its value is 7.4 g.

Question: And the “Fresh Weight Control Efficacy” value (Corn (Sweet Corn); [3])?
Answer: Its value is −0.3%.

Question: And the “Corn Growth Status” value (Corn (Sweet Corn); [4])?
Answer: Its value is “Good, Normal Growth”.

Question: What about the “Fresh Weight” value (Corn (Sweet Corn); [4]) of the same molecule?
Answer: The value was 7.3 g.

Question: What about the “Fresh Weight Control Efficacy” value (Corn (Sweet Corn); [4]) of the same molecule?
Answer: The value was 1.0%.

Question: And the “Safety to corn (in words)” value (Corn (Sweet Corn); sweet corn, all dosages)?
Answer: Its value is “safe”.

Question: What about the “Corn Growth Status” value (Corn (White Waxy Corn); [5]) of the same molecule?
Answer: Its value is “Good, Normal Growth”.

Question: And the “Fresh Weight” value (Corn (White Waxy Corn); [5])?
Answer: The value was 9.7 g.

Question: And the “Fresh Weight Control Efficacy” value (Corn (White Waxy Corn); [5])?
Answer: Its value is −2.7%.

Question: What about the “Corn Growth Status” value (Corn (White Waxy Corn); [6]) of the same molecule?
Answer: The value was “Good, Normal Growth”.

Question: And the “Fresh Weight” value (Corn (White Waxy Corn); [6])?
Answer: Its value is 9.4 g.

Question: What about the “Fresh Weight Control Efficacy” value (Corn (White Waxy Corn); [6]) of the same molecule?
Answer: Its value is 0.3%.

Question: What about the “Corn Growth Status” value (Corn (White Waxy Corn); [7]) of the same molecule?
Answer: Its value is “Good, Normal Growth”.

Question: What about the “Fresh Weight” value (Corn (White Waxy Corn); [7]) of the same molecule?
Answer: The value was 9.5 g.

Question: What about the “Fresh Weight Control Efficacy” value (Corn (White Waxy Corn); [7]) of the same molecule?
Answer: Its value is −0.3%.

Question: And the “Corn Growth Status” value (Corn (White Waxy Corn); [8])?
Answer: Its value is “Good, Normal Growth”.

Question: What about the “Fresh Weight” value (Corn (White Waxy Corn); [8]) of the same molecule?
Answer: Its value is 9.0 g.

Question: What about the “Fresh Weight Control Efficacy” value (Corn (White Waxy Corn); [8]) of the same molecule?
Answer: The value was 4.5%.

Question: What about the “Growth of corn / phytotoxicity (in words)” value (Corn (White Waxy Corn); white waxy corn, highest dosage, 120 grams of active ingredient per hectare) of the same molecule?
Answer: The value was “normal, without causing any phytotoxicity”.

Question: What about the “Growth of corn / phytotoxicity (in words)” value (Corn (Zhengdan 958); Zhengdan 958, all dosages) of the same molecule?
Answer: The value was “normal”.

Question: And the “Corn Growth Status” value (Corn (Zhengdan 958); [9])?
Answer: Its value is “Good, Normal Growth”.

Question: What about the “Fresh Weight” value (Corn (Zhengdan 958); [9]) of the same molecule?
Answer: The value was 15.2 g.

Question: What about the “Fresh Weight Control Efficacy” value (Corn (Zhengdan 958); [9]) of the same molecule?
Answer: Its value is −0.5%.

Question: And the “Corn Growth Status” value (Corn (Zhengdan 958); [10])?
Answer: Its value is “Good, Normal Growth”.

Question: And the “Fresh Weight” value (Corn (Zhengdan 958); [10])?
Answer: Its value is 14.9 g.

Question: And the “Fresh Weight Control Efficacy” value (Corn (Zhengdan 958); [10])?
Answer: Its value is 1.8%.

Question: What about the “Corn Growth Status” value (Corn (Zhengdan 958); [11]) of the same molecule?
Answer: The value was “Good, Normal Growth”.

Question: What about the “Fresh Weight” value (Corn (Zhengdan 958); [11]) of the same molecule?
Answer: The value was 15.2 g.

Question: What about the “Fresh Weight Control Efficacy” value (Corn (Zhengdan 958); [11]) of the same molecule?
Answer: The value was −0.5%.

Question: What about the “Corn Growth Status” value (Corn (Zhengdan 958); [12]) of the same molecule?
Answer: Its value is “Good, Normal Growth”.

Question: What about the “Fresh Weight” value (Corn (Zhengdan 958); [12]) of the same molecule?
Answer: Its value is 15.6 g.

Question: What about the “Fresh Weight Control Efficacy” value (Corn (Zhengdan 958); [12]) of the same molecule?
Answer: The value was −2.8%.

Question: Which “Corn Growth Status” value (Corn (Sweet Corn); in vivo) does the source give for `COC(=O)OC(C)Oc1c(C(=O)c2ccc(S(C)(=O)=O)c(C3=NOCC3)c2C)cnn1C` (stereo not drawn) [Compound I, 1-((4-(3-(4,5-dihydroisoxazol-3-yl)-2-methyl-4-(methylsulfonyl)benzoyl)-1-methyl-1H-pyrazol-5-yl)oxy)ethyl methyl carbonate] here?
Answer: Its value is “Good, Normal Growth”.

Question: What about the “Growth of corn / phytotoxicity (in words)” value (Corn (Sweet Corn); in vivo) of the same molecule?
Answer: Its value is “normal, without causing any phytotoxicity”.

Question: And the “Corn Growth Status” value (Corn (White Waxy Corn); in vivo)?
Answer: Its value is “Good, Normal Growth”.

Question: What about the “Growth of corn / phytotoxicity (in words)” value (Corn (White Waxy Corn); in vivo) of the same molecule?
Answer: The value was “normal, without causing any phytotoxicity”.

Question: And the “Corn Growth Status” value (Corn (Zhengdan 958); in vivo)?
Answer: The value was “Good, Normal Growth”.

Question: And the “Growth of corn / phytotoxicity (in words)” value (Corn (Zhengdan 958); in vivo)?
Answer: The value was “normal, without causing any phytotoxicity”.

Question: How did the “Corn Growth Status” value (Corn (Sweet Corn); in vivo) turn out when `Cc1c(C(=O)c2cnn(C)c2OC(=O)C(C)(C)C)ccc(S(C)(=O)=O)c1C1=NOCC1` [Compound II, 4-(3-(4,5-dihydroisoxazol-3-yl)-2-methyl-4-(methylsulfonyl)benzoyl)-1-methyl-1H-pyrazol-5-yl pivalate] was run?
Answer: The value was “Good, Normal Growth”.

Question: What about the “Safety to corn (in words)” value (Corn (Sweet Corn); in vivo) of the same molecule?
Answer: Its value is “safe”.

Question: And the “Corn Growth Status” value (Corn (White Waxy Corn); in vivo)?
Answer: Its value is “Good, Normal Growth”.

Question: And the “Safety to corn (in words)” value (Corn (White Waxy Corn); in vivo)?
Answer: The value was “safe”.

Question: What about the “Corn Growth Status” value (Corn (Zhengdan 958); in vivo) of the same molecule?
Answer: The value was “Good, Normal Growth”.

Question: And the “Growth of corn / phytotoxicity (in words)” value (Corn (Zhengdan 958); in vivo)?
Answer: The value was “normal, without causing any phytotoxicity”.
